pIC50: −log10 of the molar value.

The subject of one assay is MV-4-11 cells. Kind of assay: Cell viability in MV-4-11 cells (CellTiter Glo2). Particulars: Homo sapiens, MV4-11, 96 h, 8-point dose response, 4 days, CellTiter Glo2 (Table E2), read-out: MV-4-11 Cell Viability, MV-4-11 IC50. It is filed as cell-based. Background: Cellular ATP, detected with luciferase, serves as a proxy for viable cell number.
The next assay concerns the target T1, NAMPT (Homo sapiens, UniProt P43490).
T1 construct: purchased Abcam ab221819
Kind of assay: NAMPT Activity Assay (Abcam #ab221819). It is filed as biochemical. As to conditions: purified NAMPT, two-step reaction, OD450 nm; percent inhibition vs no drug; compound concentration not stated.

T1 sequence (P43490 whole entry): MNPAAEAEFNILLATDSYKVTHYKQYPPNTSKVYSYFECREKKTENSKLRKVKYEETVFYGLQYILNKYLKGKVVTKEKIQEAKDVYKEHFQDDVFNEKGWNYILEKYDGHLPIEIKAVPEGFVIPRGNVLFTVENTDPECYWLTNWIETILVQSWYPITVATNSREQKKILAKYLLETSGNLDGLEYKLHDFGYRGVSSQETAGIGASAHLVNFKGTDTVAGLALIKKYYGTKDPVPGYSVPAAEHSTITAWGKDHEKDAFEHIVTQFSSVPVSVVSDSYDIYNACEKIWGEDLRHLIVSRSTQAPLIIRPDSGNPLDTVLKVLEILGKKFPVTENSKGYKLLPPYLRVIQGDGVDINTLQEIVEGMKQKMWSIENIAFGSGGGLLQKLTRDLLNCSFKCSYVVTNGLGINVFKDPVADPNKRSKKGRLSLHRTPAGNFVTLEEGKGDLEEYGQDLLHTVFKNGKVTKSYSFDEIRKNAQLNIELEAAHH
Method for MV-4-11 cells: Approximately 10,000 MV-4-11 cells per well of a 96-well plate were treated with DMSO (no drug control) or each compound in Tables E1 and E2 in an 8-point dose response for 4 days, Cell viability was measured using CellTiter Glo2. The ICse of each compound was determined using CDD Vault.
Method for NAMPT: The NAMPT Activity Assay (Abcam #ab221819) was performed following manufacturers two-step reaction protocol. Briefly, compounds were added to a clear 96-well plate using the HP D300e Digital Dispenser. Purified NAMPT was added to all wells except the No NAMPT controls. Reaction Mix #1 was added to each well and the plate was incubated at 30*C for 1 hr followed by the addition of Reaction Mix #2. Absorbance was measured at OD450 nm using a multimode plate reader. Readings were recorded for 5 minutes and percent inhibition was calculated using: (1-(OD450 nm compound/OD450 nm no drug))*100.

As a reminder, the pIC50 is −log10 of the IC50, conventionally taken in molar units. For `CCC(=O)N(C)c1ccc(-c2ccc(C(=O)NCc3ccc(NCCN)nc3)cn2)cc1C` [Compound I-527, N-((6-((2-aminoethyl)amino)pyridin-3-yl)methyl)-6-(3-methyl-4-(N-methylpropionamido)phenyl)nicotinamide], the negative logarithm of the IC50 (pIC50) with MV-4-11 cells is 6.10. Besides, the “NAMPT Inhibition Code” value on NAMPT is on record as “A (A = <33% inhibition)”.

Consider `Cc1cc(-c2ccc(C(=O)NCc3cccnc3)cn2)ccc1N(C)C(=O)CCN` [Compound I-593, 6-[4-[3-aminopropanoyl(methyl)amino]-3-methyl-phenyl]-N-(3-pyridylmethyl)pyridine-3-carboxamide], for which the pIC50 in the assay with MV-4-11 cells was 5.83. Further, the “NAMPT Inhibition Code” value on NAMPT is given as “A (A = <33% inhibition)”.

Consider `CC(=O)N(CC(C)C)c1ccc(-c2ccc(C(=O)NCc3cccnc3)cn2)cc1C` [Compound I-594, 6-[4-[Acetyl(isobutyl)amino]-3-methyl-phenyl]-N-(3-pyridylmethyl)pyridine-3-carboxamide], for which the pIC50 in the assay on MV-4-11 cells is over 8.18. Moreover, on NAMPT, the “NAMPT Inhibition Code” value is recorded as “C (C = ≥66% inhibition)”.

On to `Cc1cc(-c2ccc(C(=O)NCc3cccnc3)cn2)ccc1N(C(=O)C(F)F)C(C)C` [Compound I-595, 6-[4-[(2,2-Difluoroacetyl)-isopropyl-amino]-3-methyl-phenyl]-N-(3-pyridylmethyl)pyridine-3-carboxamide], for which the pIC50 in the assay with MV-4-11 cells was 8.34. For the same molecule, the “NAMPT Inhibition Code” value on NAMPT was “C (C = ≥66% inhibition)”.

Regarding `CC(=O)N(c1ccc(-c2ccc(C(=O)NCc3cccnc3)cn2)cc1Cl)C(C)C` [Compound I-596, 6-[4-[Acetyl(isopropyl)amino]-3-chloro-phenyl]-N-(3-pyridylmethyl)pyridine-3-carboxamide], the pIC50 in the assay with MV-4-11 cells was 8.62. Moreover, the “NAMPT Inhibition Code” value on NAMPT is “C (C = ≥66% inhibition)”.

In the case of `CC(=O)N(c1ccc(-c2ccc(C(=O)NCc3cccnc3)cc2)cc1Cl)C(C)C` [Compound I-597, 4-[4-[Acetyl(isopropyl)amino]-3-chloro-phenyl]-N-(3-pyridylmethyl)benzamide], the pIC50 with MV-4-11 cells is 7.67. The “NAMPT Inhibition Code” value at NAMPT was “C (C = ≥66% inhibition)”.

With `CC(=O)N(CC(C)C)c1ccc(-c2ccc(C(=O)NCc3cccnc3)cn2)cc1Cl` [Compound I-599, 6-[4-[Acetyl(isobutyl)amino]-3-chloro-phenyl]-N-(3-pyridylmethyl)pyridine-3-carboxamide], the pIC50 in the assay with MV-4-11 cells was 8.48. For the same molecule, on NAMPT, the “NAMPT Inhibition Code” value is reported as “C (C = ≥66% inhibition)”.

As to `CC(=O)N(CC1CC(F)(F)C1)c1ccc(-c2ccc(C(=O)NCc3cccnc3)cn2)cc1C` [Compound I-600, 6-[4-[Acetyl-[(3,3-difluorocyclobutyl)methyl]amino]-3-methyl-phenyl]-N-(3-pyridylmethyl)pyridine-3-carboxamide], the pIC50 in the assay with MV-4-11 cells is 7.69. Moreover, the “NAMPT Inhibition Code” value on NAMPT is “B (B = ≥33 to <66% inhibition)”.

On to `CC(=O)N(CCC(F)(F)F)c1ccc(-c2ccc(C(=O)NCc3cccnc3)cn2)cc1C` [Compound I-601, 6-[4-[Acetyl(3,3,3-trifluoropropyl)amino]-3-methyl-phenyl]-N-(3-pyridylmethyl)pyridine-3-carboxamide], for which the pIC50 with MV-4-11 cells is 7.20. Also, the “NAMPT Inhibition Code” value at NAMPT was “B (B = ≥33 to <66% inhibition)”.

With `CC(=O)N(CC1CC1)c1ccc(-c2ccc(C(=O)NCc3cccnc3)cn2)cc1Cl` [Compound I-602, 6-[4-[Acetyl(cyclopropylmethyl)amino]-3-chloro-phenyl]-N-(3-pyridylmethyl)pyridine-3-carboxamide], the pIC50 with MV-4-11 cells was 8.25. For the same molecule, at NAMPT, the “NAMPT Inhibition Code” value is reported as “C (C = ≥66% inhibition)”.

As for `CC(=O)N(CC1CC(F)(F)C1)c1ccc(-c2ccc(C(=O)NCc3cccnc3)cn2)cc1Cl` [Compound I-603, 6-[4-[Acetyl-[(3,3-difluorocyclobutyl)methyl]amino]-3-chloro-phenyl]-N-(3-pyridylmethyl)pyridine-3-carboxamide], the negative logarithm of the IC50 (pIC50) in the assay on MV-4-11 cells is over 8.23. Besides, the “NAMPT Inhibition Code” value on NAMPT is “C (C = ≥66% inhibition)”.

As to `CC(=O)N(CCC(F)(F)F)c1ccc(-c2ccc(C(=O)NCc3cccnc3)cn2)cc1Cl` [Compound I-604, 6-[4-[Acetyl(3,3,3-trifluoropropyl)amino]-3-chloro-phenyl]-N-(3-pyridylmethyl)pyridine-3-carboxamide], the negative logarithm of the IC50 (pIC50) with MV-4-11 cells is 7.48. Further, the “NAMPT Inhibition Code” value on NAMPT was “B (B = ≥33 to <66% inhibition)”.

For the molecule `CCc1cc(-c2ccc(C(=O)NCc3cccnc3)cn2)ccc1N(C)C(C)=O` [Compound I-605, 6-[4-[Acetyl(methyl)amino]-3-ethyl-phenyl]-N-(3-pyridylmethyl)pyridine-3-carboxamide], the pIC50 with MV-4-11 cells is 6.45. Also, the “NAMPT Inhibition Code” value on NAMPT is on record as “B (B = ≥33 to <66% inhibition)”.

On to `CCCN(C(C)=O)c1ccc(-c2ccc(C(=O)NCc3cccnc3)cn2)cc1Cl` [Compound I-606, 6-[4-[Acetyl(propyl)amino]-3-chloro-phenyl]-N-(3-pyridylmethyl)pyridine-3-carboxamide], for which the pIC50 with MV-4-11 cells was 7.68. Also, the “NAMPT Inhibition Code” value at NAMPT is listed as “C (C = ≥66% inhibition)”.

As to `CC(=O)N(CC(F)F)c1ccc(-c2ccc(C(=O)NCc3cccnc3)cn2)cc1C` [Compound I-608, 6-[4-[Acetyl(2,2-difluoroethyl)amino]-3-methyl-phenyl]-N-(3-pyridylmethyl)pyridine-3-carboxamide], the pIC50 in the assay on MV-4-11 cells was 6.66. In addition, at NAMPT, the “NAMPT Inhibition Code” value is recorded as “B (B = ≥33 to <66% inhibition)”.

On to `CC(=O)N(CC1CC1)c1ccc(-c2ccc(C(=O)NCc3cccnc3)cn2)cc1C` [Compound I-609, 6-[4-[Acetyl(cyclopropylmethyl)amino]-3-methyl-phenyl]-N-(3-pyridylmethyl)pyridine-3-carboxamide], for which the pIC50 in the assay with MV-4-11 cells is 7.87. The “NAMPT Inhibition Code” value at NAMPT is reported as “C (C = ≥66% inhibition)”.

Turning to `CC(=O)N(CC1COC1)c1ccc(-c2ccc(C(=O)NCc3cccnc3)cn2)cc1C` [Compound I-610, 6-[4-[Acetyl(oxetan-3-ylmethyl)amino]-3-methyl-phenyl]-N-(3-pyridylmethyl)pyridine-3-carboxamide], the pIC50 in the assay on MV-4-11 cells is 7.43. In addition, on NAMPT, the “NAMPT Inhibition Code” value is “B (B = ≥33 to <66% inhibition)”.

For the molecule `CC(C)N(C(=O)C(F)F)c1ccc(-c2ccc(C(=O)NCc3cccnc3)cn2)cc1Cl` [Compound I-611, 6-[3-chloro-4-[(2,2-difluoroacetyl)-isopropyl-amino]phenyl]-N-(3-pyridylmethyl)pyridine-3-carboxamide], the pIC50 in the assay with MV-4-11 cells was 8.52. Also, at NAMPT, the “NAMPT Inhibition Code” value is “C (C = ≥66% inhibition)”.

On to `CC(=O)N(CC(F)F)c1ccc(-c2ccc(C(=O)NCc3cccnc3)cn2)cc1Cl` [Compound I-619, 6-[4-[Acetyl(2,2-difluoroethyl)amino]-3-chloro-phenyl]-N-(3-pyridylmethyl)pyridine-3-carboxamide], for which the pIC50 in the assay with MV-4-11 cells was 7.17. At NAMPT, the “NAMPT Inhibition Code” value is given as “C (C = ≥66% inhibition)”.

Turning to `CC(=O)N(CC1COC1)c1ccc(-c2ccc(C(=O)NCc3cccnc3)cn2)cc1Cl` [Compound I-620, 6-[4-[Acetyl(oxetan-3-ylmethyl)amino]-3-chloro-phenyl]-N-(3-pyridylmethyl)pyridine-3-carboxamide], the negative logarithm of the IC50 (pIC50) in the assay on MV-4-11 cells is 8.09. For the same molecule, the “NAMPT Inhibition Code” value at NAMPT was “C (C = ≥66% inhibition)”.

Turning to `CC(=O)N(c1ccc(-c2ccc(C(=O)NCc3cccnc3)cc2)cc1C)C(C)C` [Compound I-624, 4-[4-[Acetyl(isopropyl)amino]-3-methyl-phenyl]-N-(3-pyridylmethyl)benzamide], in the assay on MV-4-11 cells, the pIC50 is 7.40. Moreover, on NAMPT, the “NAMPT Inhibition Code” value was “B (B = ≥33 to <66% inhibition)”.

In the case of `CC(=O)N(c1ccc(-c2ccc(C(=O)NCc3cccnc3)cn2)cc1F)C(C)C` [Compound I-626, 6-[4-[Acetyl(isopropyl)amino]-3-fluoro-phenyl]-N-(3-pyridylmethyl)pyridine-3-carboxamide], in the assay on MV-4-11 cells, the negative-log IC50 (pIC50) is 7.63. Moreover, the “NAMPT Inhibition Code” value on NAMPT is recorded as “C (C = ≥66% inhibition)”.

Regarding `CC(=O)N(CCC(F)F)c1ccc(-c2ccc(C(=O)NCc3cccnc3)cn2)cc1` [Compound I-629, 6-[4-[Acetyl(3,3-difluoropropyl)amino]phenyl]-N-(3-pyridylmethyl)pyridine-3-carboxamide], the pIC50 in the assay on MV-4-11 cells is 6.45. The “NAMPT Inhibition Code” value on NAMPT is on record as “B (B = ≥33 to <66% inhibition)”.

Take `CC(=O)N(c1ccc(-c2ccc(C(=O)NCc3cccnc3)cc2)cc1F)C(C)C` [Compound I-630, 4-[4-[Acetyl(isopropyl)amino]-3-fluoro-phenyl]-N-(3-pyridylmethyl)benzamide]: the pIC50 in the assay with MV-4-11 cells is 6.86. On NAMPT, the “NAMPT Inhibition Code” value is given as “C (C = ≥66% inhibition)”.

Regarding `CC(=O)N(CC(F)F)c1ccc(-c2ccc(C(=O)NCc3cccnc3)cn2)cc1` [Compound I-631, 6-[4-[Acetyl(2,2-difluoroethyl)amino]phenyl]-N-(3-pyridylmethyl)pyridine-3-carboxamide], the negative-log IC50 (pIC50) in the assay on MV-4-11 cells was 5.80. Besides, the “NAMPT Inhibition Code” value on NAMPT was “B (B = ≥33 to <66% inhibition)”.

Turning to `CC(=O)N(CCC(F)F)c1ccc(-c2ccc(C(=O)NCc3cccnc3)cn2)cc1C` [Compound I-639, 6-[4-[Acetyl(3,3-difluoropropyl)amino]-3-methyl-phenyl]-N-(3-pyridylmethyl)pyridine-3-carboxamide], the pIC50 in the assay with MV-4-11 cells was 6.88. In addition, the “NAMPT Inhibition Code” value at NAMPT is “B (B = ≥33 to <66% inhibition)”.

On to `CCN(C(C)=O)c1ccc(-c2ccc(C(=O)NCc3cccnc3)cn2)cc1Cl` [Compound I-652, 6-[4-[Acetyl(ethyl)amino]-3-chloro-phenyl]-N-(3-pyridylmethyl)pyridine-3-carboxamide], for which the negative logarithm of the IC50 (pIC50) in the assay with MV-4-11 cells is 7.03. In addition, the “NAMPT Inhibition Code” value at NAMPT is listed as “C (C = ≥66% inhibition)”.

In the case of `CC(=O)N(C)c1ccc(-c2ccc(C(=O)NCc3cccnc3)cn2)cc1C(F)(F)F` [Compound I-658, 6-[4-[Acetyl(methyl)amino]-3-(trifluoromethyl)phenyl]-N-(3-pyridylmethyl)pyridine-3-carboxamide], the pIC50 with MV-4-11 cells is 6.82. For the same molecule, the “NAMPT Inhibition Code” value at NAMPT is “B (B = ≥33 to <66% inhibition)”.
